In patent publication US20130058977A1, “COMPOSITIONS AND METHODS RELATED TO INDUCED TOLEROGENIC DENDRITIC CELLS EXTERNALLY LOADED WITH MHC CLASS I-RESTRICTED EPITOPES” (Selecta Biosciences, Inc., priority 2011, published 2013):

Test system: TCR transgenic OTI cells
Experiment: External loading of MHC Class I-restricted epitopes onto itDCs, read out as Phospho-Zap-70 in OTI cells
Format: cell-based
Conditions: dendritic cells externally loaded on ice for 30 minutes; mixed with OTI cells for 30 min at 37 C; pZap70 staining
Description: Dendritic cells were externally loaded on ice for 30 minutes with MHC Class I-restricted peptides from Ovalbumin recognized by TCR transgenic OTI cells. DC were washed and mixed with OTI cells for 30 min in complete media at 37 C, 5% CO2. Cells were stained with conjugated antibodies specifically recognizing TCR. After fixation and permeabilization with paraformaldehyde and methanol, cells were labelled with monoclonal antibodies specific for the phosphorylated (activated) form of the Zeta-chain-associated protein kinase 70 (Phospho-Zap-70). Expression of pZap70 is directly proportional to the amount of stimulatory signal delivered through the TCR to T cells.

SINFEKL [MHC Class I-restricted peptide from Ovalbumin recognized by TCR transgenic OTI cells]
loading of a MHC Class I-restricted epitope onto itDCs: successful loading
